In publication PMC8315922, “In Vitro Identification and In Vivo Confirmation of Inhibitors for Sweet Potato Chlorotic Stunt Virus RNA Silencing Suppressor, a Viral RNase III” (Journal of Virology, 2021):
Read-outs that look alike come from different tables or passages of the source.

Key:
[1] = target: T1, CSR3 (RNase III of SPCSV) (Sweet potato chlorotic stunt virus, UniProt Q8JJW8); experiment: Kinetic-based HTS (FRET, labeled 22-bp siRNA cleavage), one concentration; assay type: biochemical; details: compound 10 μM, 375 nM siRNA, 37°C
From the text: Based on the catalytic activity of CSR3 on 22-bp siRNA, our kinetic-based HTS assay was designed using distance-dependent FRET technology. Specifically, one strand of siRNA, as a substrate, was labeled with a fluorescent dye (6-carboxyfluorescein [FAM]) at the 5′ end and a quencher (black hole quencher 1 [BHQ1]) at the 3′ end. The initial reaction rate of CSR3 was quantified using the slope of raw fluorescence under an excitation/emission spectrum at 485/520 nm (Fig. 3A). […] In this study, a total of 6,622 compounds (including 6,400 selected from Glide docking and 222 empirically selected compounds for preliminary assay setup) were screened using kinetic-based HTS at a final concentration of 10 μM. All 384-well screening plates contained 32 negative (with CSR3 [i.e., the substrate was successfully cleaved]) and 32 positive (without CSR3 [i.e., the substrate remained intact]) control reaction mixtures. To evaluate the quality of the HTS assay, the Z-factor (Z′) parameter was calculated using the reaction rates of the positive and negative controls ([30]). […]
The HTS assay was designed based on FRET using a 22-bp siRNA (forward sequence, […]; reverse sequence, […]) with a 2-nucleotide (nt) 3′ overhang labeled with the fluorescent dye 6-carboxyfluorescein (FAM) and a black hole quencher (BHQ1) on the sense strand (Metabion, Munich, Germany). […] The plates were read with a PHERAstar FS reader (BMG Labtech, Ortenberg, Germany).
(§1) For HTS, the activity of CSR3 was calculated by measuring the change in fluorescence as a function of the reaction time using MARS Data Analysis software (BMG Labtech). To evaluate the CSR3 inhibition efficiency of individual compounds, the PI of each compound was calculated using the slope values for the sample, positive control, and negative control according to the following equation: PI = 100 × [1 − (sample − positive)/(negative − positive)]%. IC50 and DSS values were calculated using concentration-specific PI values according to a previous study ([31]). Relative gene expression was calculated using the classical 2^−ΔΔ^CT method ([63]).

[2] = target: T1, CSR3 (RNase III of SPCSV); experiment: Kinetic-based FRET dose-response assay (IC50, DSS); assay type: biochemical; details: for DSS Comm 1 / DSS FIMM1 / DSS FIMM 2: drug sensitivity score; for DSS Comm 1: repeat Comm 1; for DSS FIMM1: repeat FIMM 1; for DSS FIMM 2: repeat FIMM 2
Experimental: A dose-response assay with six concentrations (1.25 nM to 50 μM) was carried out in three independent experiments, which included two tests with the 112 selected FIMM compounds (i.e., compounds prepared by the HTB-FIMM) and one test using the newly ordered commercial compounds (99 of the 112 compounds, i.e., compounds prepared by a second supplier). A dose-response curve was generated for each compound based on PI values as a function of the concentration.
The HTS assay was designed based on FRET using a 22-bp siRNA (forward sequence, […]; reverse sequence, […]) with a 2-nucleotide (nt) 3′ overhang labeled with the fluorescent dye 6-carboxyfluorescein (FAM) and a black hole quencher (BHQ1) on the sense strand (Metabion, Munich, Germany). Screening was initially carried out at one concentration (10 μM) in a 20-μl reaction buffer. […] All reaction mixtures contained 50 nM CSR3 and 375 nM labeled siRNA in 384-well black flat-bottom microplates (Corning, NY, USA) and were prepared using a BioTek MultiFlo FX dispenser with single-channel random access dispenser cassettes (BioTek, Winooski, VT, USA). The plates were read with a PHERAstar FS reader (BMG Labtech, Ortenberg, Germany).
as §1

[3] = tested on: human enzymes or bacterial proteins; parameters: method as in earlier work; details: ref PubChem https://pubchem.ncbi.nlm.nih.gov/compound/7114450#section=Biological-Test-Results; cited from earlier work
SPFMV = details: plants in soil, 10 μM foliar spray twice a week for 1 month, vs water-treated
Experimental: (§2) Compounds were administered by regular foliar spray over 1 month.
(§3) Sweetpotato plants cultivar 'Huachano' (accession CIP420065) were side-graft inoculated with both SPFMV (East African strain isolate Nam1) and SPCSV-Ug (East African serotype 2) as described previously ([62]). Plantlets were propagated by taking single-node stems grown in a plant culture medium ([33]). Next, plantlets with newly formed roots were transferred to glass tubes (18 by 150 mm) containing 10 ml of medium supplemented with either 50 μM compound (diluted in DMSO; final DMSO concentration, 0.1%) or only 0.1% DMSO as a control. For plant experiments in soil, plantlets were transferred to pots (6 by 6 by 10 cm) filled with a mixture of sand, humus, and washed soil. After 1 week, plants were treated by foliar spraying using either individual compounds at a single concentration (10 μM) (treatment) or water (control/mock) twice a week for 1 month. All plants were grown at 22°C with 60% humidity and a 16-h light/8-h dark photoperiod for 28 days in culture medium and for 41 days in soil. The Finnish National Plant Phenotyping Infrastructure (NaPPI) was used to monitor plant viral disease symptoms as described in our previous study ([33]). Four compounds were tested with the phenotyping platform in two independent batches, each of which included five biological replicates.
(§4) Leaf samples were collected from plants grown in culture medium or soil for 28 or 41 days, respectively, and frozen in liquid nitrogen. Total RNA was extracted using the Spectrum plant total RNA kit (Sigma-Aldrich). First-strand cDNA was synthesized using the Transcriptor first-strand cDNA synthesis kit (Roche, Basel, Switzerland). Gene expression was measured in a final volume of 10 μl (containing 2 μl 10-fold-diluted cDNA, 5 μl SYBR green I master mix [Roche], and 2.5 μM primers) using the LightCycler 480 instrument II (Roche). All RT-qPCR experiments were conducted in triplicate on three and five biological replicates from plants grown in culture medium and soil, respectively. The primer list can be found in our previous study ([33]).
as §1

SPCSV = details: plants in soil, 10 μM foliar spray twice a week for 1 month, vs water-treated
Experimental: as §2, §3, §4, §1

[4] = repeat Comm 1 (commercial compounds), 1.25 nM to 50 μM, unit inferred, numbers match nM, read-out: IC50 Comm 1
[5] = repeat FIMM 1 (FIMM library compounds), 1.25 nM to 50 μM, unit inferred, numbers match nM (cf. Fig 5A), read-out: IC50 FIMM1
[6] = repeat FIMM 2 (FIMM library compounds), 1.25 nM to 50 μM, unit inferred, numbers match nM, read-out: IC50 FIMM 2
[7] = kinetic-based HTS, Fig 5A summary
[8] = read-out: IC50 Comm 1, repeat Comm 1 (commercial compounds), 1.25 nM to 50 μM, unit inferred, numbers match nM
[9] = read-out: IC50 FIMM 2, repeat FIMM 2 (FIMM library compounds), 1.25 nM to 50 μM, unit inferred, numbers match nM

T1 sequence (Q8JJW8 entry or part of it): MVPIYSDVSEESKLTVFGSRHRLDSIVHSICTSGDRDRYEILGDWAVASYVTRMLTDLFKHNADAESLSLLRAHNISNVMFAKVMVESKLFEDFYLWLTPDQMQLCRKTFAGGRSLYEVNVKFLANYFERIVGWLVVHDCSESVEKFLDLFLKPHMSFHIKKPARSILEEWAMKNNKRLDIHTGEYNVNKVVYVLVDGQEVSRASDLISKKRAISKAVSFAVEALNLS

Structure (SMILES) | PI values (percentage of inhibition) [1] [%] | DSS Comm 1 [2] | DSS FIMM1 [2] | DSS FIMM 2 [2] | IC50 [2, 4] [nM] | IC50 [2, 5] [nM] | IC50 [2, 6] [nM] | activity in inhibitor screens for human enzymes or bacterial proteins [3] | DSS [2, 7] | IC50 [2, 7] [nM] | IC50 [2, 8] [nM] | IC50 [2, 9] [nM] | log2 fold change in coat protein expression of SPFMV (SPFMV) | log2 fold change in coat protein expression of SPCSV (SPCSV)
O=C1c2c(O)ccc(O)c2C(=O)c2c(NCCNCCO)ccc(NCCNCCO)c21 [FIMM000490] | 102.062 | 16.9 | 14.9 | 15.5 | 1200 | 1810 | 1640 |  |  |  |  |  |  | 
O=C(O)c1ccc(C2Nc3c(Br)cccc3C3C=CCC32)cc1 (centres unmarked) [FIMM022230] |  | 5.4 | 13.8 | 14.3 |  | 1860 |  | inactive | 13.8 | ~1860 | 12000 | 1550 | −0.73 | −0.58
Cc1ccc(C2Nc3ccc(C(=O)O)cc3C3C=CCC32)cc1 (centres unmarked) [FIMM031755] |  | 7.7 | 15.9 | 16.2 |  |  |  | affected the activity of chain B of the human cytokine/receptor binary complex | 15.9 | ~1270 | 7380 | 1240 | −1.33 | −1.30
COc1cc(C=C2C(=O)NC(=S)NC2=O)ccc1OCc1ccccc1[N+](=O)[O-] [FIMM101864] | 98.4382 | 6.4 | 11.2 | 8 | 1690 | 3850 | 7240 |  |  |  |  |  |  | 
